{"source": "patent US20070065443A1", "about": "“Fructoseamine 3 kinase and the formation of collagen and elastin” (priority 2004, published 2007)", "key": {"[1]": {"molecular_target": "T1, Calf skin collagen type I (Bos taurus, UniProt P02453+P02465)", "T1 construct": "Calf skin collagen type I (1.3 mg; Sigma); purchased Sigma; host or cells: calf skin", "T1 sequence (P02453 162-1217 limits assumed)": "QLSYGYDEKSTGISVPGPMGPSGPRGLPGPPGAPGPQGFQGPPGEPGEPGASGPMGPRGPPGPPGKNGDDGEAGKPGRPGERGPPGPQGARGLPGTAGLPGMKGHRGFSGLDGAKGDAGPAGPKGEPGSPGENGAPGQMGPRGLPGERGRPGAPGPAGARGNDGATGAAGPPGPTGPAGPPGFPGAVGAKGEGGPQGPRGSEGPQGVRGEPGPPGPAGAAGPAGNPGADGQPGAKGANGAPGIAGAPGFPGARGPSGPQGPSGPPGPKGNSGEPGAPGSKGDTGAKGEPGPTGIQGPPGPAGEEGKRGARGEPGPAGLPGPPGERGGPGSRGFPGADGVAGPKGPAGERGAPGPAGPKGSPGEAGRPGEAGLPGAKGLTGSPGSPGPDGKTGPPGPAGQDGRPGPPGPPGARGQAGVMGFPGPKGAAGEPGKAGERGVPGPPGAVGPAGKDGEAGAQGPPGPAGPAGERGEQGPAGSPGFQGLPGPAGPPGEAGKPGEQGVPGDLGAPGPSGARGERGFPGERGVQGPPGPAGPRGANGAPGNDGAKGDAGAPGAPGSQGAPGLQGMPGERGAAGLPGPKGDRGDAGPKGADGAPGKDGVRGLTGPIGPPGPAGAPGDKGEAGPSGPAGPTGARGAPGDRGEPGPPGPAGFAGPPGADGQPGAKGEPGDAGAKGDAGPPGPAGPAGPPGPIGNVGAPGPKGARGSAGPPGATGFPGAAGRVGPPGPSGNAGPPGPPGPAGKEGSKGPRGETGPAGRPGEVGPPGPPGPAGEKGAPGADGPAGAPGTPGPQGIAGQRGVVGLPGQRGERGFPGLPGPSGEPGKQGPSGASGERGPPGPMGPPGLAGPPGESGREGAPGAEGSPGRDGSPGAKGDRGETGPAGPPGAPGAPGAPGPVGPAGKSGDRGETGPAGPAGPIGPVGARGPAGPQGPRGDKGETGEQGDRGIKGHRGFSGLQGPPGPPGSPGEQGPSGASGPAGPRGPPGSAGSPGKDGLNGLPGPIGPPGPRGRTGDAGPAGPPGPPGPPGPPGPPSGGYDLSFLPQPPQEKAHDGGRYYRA", "T1 sequence (P02465 80-1117 limits assumed)": "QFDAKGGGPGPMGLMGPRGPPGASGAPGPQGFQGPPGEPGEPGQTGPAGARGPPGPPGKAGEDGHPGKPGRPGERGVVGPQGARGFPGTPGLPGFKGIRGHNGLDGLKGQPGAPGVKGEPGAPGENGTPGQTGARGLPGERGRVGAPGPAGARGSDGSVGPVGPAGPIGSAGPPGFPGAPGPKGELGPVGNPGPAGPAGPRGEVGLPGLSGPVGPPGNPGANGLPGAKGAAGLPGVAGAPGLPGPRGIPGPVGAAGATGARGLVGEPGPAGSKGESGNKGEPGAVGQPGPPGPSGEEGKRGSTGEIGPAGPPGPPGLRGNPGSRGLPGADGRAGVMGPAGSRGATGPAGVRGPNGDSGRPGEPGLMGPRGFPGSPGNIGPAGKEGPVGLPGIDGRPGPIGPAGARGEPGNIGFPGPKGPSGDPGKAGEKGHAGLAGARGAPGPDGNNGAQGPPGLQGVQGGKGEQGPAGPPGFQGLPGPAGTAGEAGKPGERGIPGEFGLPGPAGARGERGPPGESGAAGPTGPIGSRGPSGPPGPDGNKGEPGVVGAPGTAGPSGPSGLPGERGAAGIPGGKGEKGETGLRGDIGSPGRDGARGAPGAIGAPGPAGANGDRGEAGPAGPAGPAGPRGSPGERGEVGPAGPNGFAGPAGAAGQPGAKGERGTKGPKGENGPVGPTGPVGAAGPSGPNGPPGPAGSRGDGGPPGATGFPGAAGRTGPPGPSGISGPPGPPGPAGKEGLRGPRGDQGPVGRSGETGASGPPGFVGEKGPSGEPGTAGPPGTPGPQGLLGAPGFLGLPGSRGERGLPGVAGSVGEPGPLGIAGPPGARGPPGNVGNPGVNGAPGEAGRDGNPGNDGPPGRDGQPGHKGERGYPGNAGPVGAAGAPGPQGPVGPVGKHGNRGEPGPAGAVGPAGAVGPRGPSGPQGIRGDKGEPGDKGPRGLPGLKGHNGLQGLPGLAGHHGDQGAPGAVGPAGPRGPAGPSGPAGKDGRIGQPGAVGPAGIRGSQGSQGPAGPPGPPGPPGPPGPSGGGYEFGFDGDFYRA", "assay": "3DG-induced collagen crosslinking and inhibition by arginine (CNBr digest, SDS-PAGE)", "assay_type": "biochemical", "conditions": "37° C., 24 hours", "method": "Collagen type I was treated with 3DG in the-presence or absence of arginine. The samples were subjected to cyanogen bromide (CNBr) digestion, electrophoresed on a 16.5% SDS Tris-tricine gel, and then the gels were processed using silver stain techniques to visualize the proteins. Lane 1 contains molecular weight marker standards. Lanes 2 and 5 contain 10 and 20 μl of the collagen mixture following CNBr digestion. Lanes 3 and 6 contain the collagen mixture treated with 3DG and then digested with CNBr, and loaded at 10 and 20 μl, respectively. Lanes 4 and 7 contain the mixture of collagen incubated with 5 mM 3DG and 10 mM arginine and then digested with CNBr, and loaded at 10 and 20 μl, respectively.\nCollagen I was incubated in the presence or absence of 3DG in vitro. Calf skin collagen type I (1.3 mg; Sigma) was incubated in 20 mM Na-phosphate buffer, pH 7.25, either alone, with 5 mM 3DG, or with 5 mM 3DG plus 10 mM arginine, in a total volume of 1 ml at 37° C. for 24 hours and then frozen and lyophilized. The residue was dissolved in 0.5 ml of 70% formic acid and cyanogen bromide was added (20:1, w/w). This solution was incubated at 30° C. for 18 hours. […] The extent of collagen crosslinking was determined by applying equal volumes of sample and analyzing by SDS-PAGE electrophoresis (16.5% Tris-tricine gel), as determined by the effects of 3DG on the migration of collagen."}, "3-deoxyglucosone": {"system": "3-deoxyglucosone", "assay": "Reduction of urinary and plasma 3-deoxyglucosone by polyollysines and meglumine", "assay_type": "in vivo, rat", "conditions": "for reduction of plasma 3-deoxyglucosone / average reduction of urinary 3-deoxyglucosone: rats, 10 μmols i.p.; for reduction of plasma 3-deoxyglucosone: plasma at end of 3 h; for average reduction of urinary 3-deoxyglucosone: urine 3 h before vs 3 h after, normalized to creatinine", "method": "Urine was collected from six rats for three hours. A plasma sample was also obtained. The animals were then given 10 μmols of either sorbitollysine, mannitollysine, or galactitollysine by intraperitoneal injection. Urine was collected for another three hours, and a plasma sample obtained at the end of the three hours. 3-deoxyglucosone was measured in the samples, as described in Example 5, below, and variable volumes were normalized to creatinine. The average reduction of urinary 3-deoxyglucosone was 50% by sorbitollysine, 35% by mannitollysine and 35% by galactitollysine. Plasma 3-deoxyglucosone was reduced 40% by sorbitollysine, 58% by mannitollysine and 50% by galactitollysine.\nThree rats were treated as in b), immediately above, except meglumine (100 μmols) was injected intraperitoneally instead of the above-mentioned lysine derivatives. Three hours after the injection the average 3-deoxyglucosone concentrations in the urine were decreased 42%.\n3DG was measured by GC-MS after deionization of the sample. 3DG was derivatized with a 10-fold excess of diaminonaphthalene in PBS. Ethyl acetate extraction gave a salt free fraction which was converted to the trimethyl silyl ethers with Tri-Sil (Pierce). Analysis was performed on a Hewlett-Packard 5890 selected ion monitoring GC-MS system. GC was performed on a fused silica capillary column (DB-5,25 mx.25 mm) using the following temperature program: injector port 250° C., initial column temperature 150° C. which was held for 1 minute, then increased to 290° C. at 16° C./minute and held for 15 minutes. Quantitation of 3DG employed selected ion monitoring using an internal standard of U-13C-3DG."}, "desmosines [2]": {"system": "desmosines", "assay": "Aorta desmosine levels in diabetic rats", "assay_type": "in vivo, rat", "method": "(§1) For desmosine analysis, the biopsy of tissue is fixated using paraffin. The paraffin is removed from the […] in the microfuge tubes by incubating for 10 minutes with 500 μL of xylene. Five microliters of water is added, the tubes gently vortexed and then microfuged. The xylene is carefully removed, 400 μL of 6N HCl is added to the protein pellet, and the samples hydrolyzed for 24 hours at 100° C. The acid is evaporated in a savant vacuum centrifuge and the hydrolysate redissolved in 400 μL distilled water. The samples are vortexed and microfuged and 20 μL removed from each tube for desmosine analysis by radioimmunoassay. Protein content is determined in 2 μL of the hydrolysate by slightly modifying the ninhydrin method. A stock ninhydrin solution is made by dissolving 10 g of ninhydrin in 375 mL of ethylene glycol and 125 mL of 4N sodium acetate buffer, pH 5.5. For the working solution, 250 μL of 10% stannous chloride suspension is added for every 10 mL of the ninhydrin stock solution. Hydroxyproline is determined in 50 μL of hydrolysate by amino acid analysis."}, "desmosines [3]": {"system": "desmosines", "assay": "Skin desmosine content in diabetic rats", "assay_type": "in vivo, rat", "method": "as §1\nThe production of desmosines, a precursor to elastin, can be regulated by compounds that affect the Amadorase pathway. Skin from normal, diabetic, and animals treated with 1-deoxy-1-morpholinofructose were excised and for desmosine content as described in example 29."}, "Amadorase [4]": {"molecular_target": "Amadorase", "conditions": "read-out: concentration inhibiting Amadorase by 50%; purified Amadorase, 37° C., 15 minutes", "method": "Experiments were performed to test the effect of copper on the activity of the Amadorase enzyme in vitro. Using methods described elsewhere, increasing amounts of copper in the form of CuSO4, was added to an in vitro assay. Purified Amadorase was added to the reaction, incubated at 37° C. for 15 minutes, and the amount of FL3P measured. The graph depicted in FIG. 20 represents percent Amadorase activity as a function of copper concentration."}, "desmosines [5]": {"system": "desmosines", "assay": "Lung desmosine levels in STZ-diabetic mice", "assay_type": "in vivo", "conditions": "regardless of whether diabetic", "method": "as §1\nLung tissues from mice made diabetic with STZ was excised and analyzed for desmosine levels. The levels of desmosines in diabetic mice were greater than non-diabetic mice."}, "Amadorase [6]": {"system": "Amadorase", "assay": "In vitro Amadorase-dependent production of 3DG from FL", "assay_type": "biochemical", "conditions": "FL 2.6 mM"}, "[7]": {"assay": "Urinary FL, 3DG and 3DF in humans after ingestion of glycated protein (2 g FL)", "assay_type": "in vivo, human", "conditions": "seven volunteers, 2 gram dose of fructoselysine as glycated protein food", "method": "260 g of casein, 120 g of glucose and 720 ml of water were mixed to give a homogeneous mixture. This mixture was transferred to a metal plate and heated at 65° C. for 68 hours. The resulting cake was then pulverized to a coarse powder. This powder contained 60% protein as determined by the Kjeldahl procedure.\nOne gram of the powder prepared as in step a., above, was hydrolyzed by refluxing with 6N HCl for 20 hours. The resulting solution was adjusted to pH 1.8 with NaOH solution and diluted to 100 ml. The fructoselysine content was measured on an amino acid analyzer as furosine, the product obtained from acid hydrolysis of fructoselysine. In this way, it was determined that the cake contained 5.5% (w/w) fructoselysine. […]\nFL was measured by HPLC with a Waters 996 diode Array using a Waters C18 Free Amino Acid column at […] and a gradient elution system of acetonitrile-methyl alcohol-water (45:15:40) into acetonitrile-sodium acetate-water (6:2:92) at 1 ml/min. Quantitation employed an internal standard of meglumine. 3DF was measured by HPLC after deionization of the sample. […] Quantitation was performed from standard curves obtained daily with synthetic 3DF.\n3DG was measured by GC-MS after deionization of the sample. […] Quantitation of 3DG employed selected ion monitoring using an internal standard of U-13C-3DG."}, "[8]": {"system": "human dermal fibroblasts acquired from a patient with scleroderma", "assay": "Collagen 1A1 mRNA by Northern blot in scleroderma fibroblasts", "assay_type": "cell-based", "conditions": "5 mM, 72 hours, normalized to GAPDH mRNA", "method": "In these experiments 5 mM FL was added to cultured human dermal fibroblasts acquired from a patient with scleroderma. After 72 hours, cells were collected and mRNA isolated. Equal amounts of each mRNA preparation was separated by electrophoresis and the amount of collagen 1A1 mRNA detected by Northern blot using a radioactive probe to the collagen 1A1 mRNA as shown in FIG. 19. A phosphoimager was used to quantify the amount of collagen type 1 mRNA. A radioactive probe to the GAPDH mRNA was used as a control to normalize the level of collagen 1A1 mRNA in each sample. The level of collagen 1A1 RNA was decreased by 40%."}, "[9]": {"conditions": "individual treated diabetic rats"}}, "note": "Several values for one entry are separate records, joined by “and”; a condition that tells them apart may be missing. Identical values can stand only once.", "data": [{"smiles": "N=C(N)NCCC[C@H](N)C(=O)O", "note": "[arginine]", "values": [{"measurement": "inhibition of 3DG induced collagen crosslinking", "setting": "[1]; collagen type I with 5 mM 3DG plus 10 mM arginine", "value": "fewer high molecular bands"}]}, {"smiles": "N[C@@H](CCCCNC[C@@H](O)[C@@H](O)[C@H](O)[C@H](O)CO)C(=O)O", "note": "[mannitollysine]", "values": [{"measurement": "reduction of plasma 3-deoxyglucosone", "setting": "3-deoxyglucosone", "value": 58, "unit": "%"}, {"measurement": "average reduction of urinary 3-deoxyglucosone", "setting": "3-deoxyglucosone", "value": 35, "unit": "%"}]}, {"smiles": "O=CC(=O)C[C@H](O)[C@H](O)CO", "note": "[3DG, 3-deoxyglucosone, reference compound]", "values": [{"measurement": "effect on collagen migration (crosslinking)", "setting": "[1]; collagen type I with 5 mM 3DG", "value": "caused the collagen to migrate as if it had a higher molecular weight"}]}, {"smiles": "O=C(CN1CCOCC1)[C@@H](O)[C@H](O)[C@H](O)CO", "note": "[1-deoxy-1-morpholinofructose]", "values": [{"measurement": "aorta desmosine levels compared to untreated diabetic rats", "setting": "desmosines [2]; diabetic rats, P=0.104", "value": "decrease in desmosine levels"}, {"measurement": "aorta desmosine pmD/mgP", "setting": "desmosines [2]; [9]", "value": "3809 pmD/mgP and 2558 pmD/mgP and 2842 pmD/mgP and 2906 pmD/mgP and 3633 pmD/mgP and 3681 pmD/mgP"}, {"measurement": "skin desmosine levels compared to untreated diabetic animals", "setting": "desmosines [3]; diabetic animals, P=0.00242", "value": "lower levels of desmosines"}, {"measurement": "skin desmosine content pmD/mgP", "setting": "desmosines [3]; [9]", "value": "63.1 pmD/mgP and 67.9 pmD/mgP (2×) and 88.1 pmD/mgP and 64.3 pmD/mgP and 65.8 pmD/mgP and 65.1 pmD/mgP and 66.8 pmD/mgP"}]}, {"smiles": "O=S(=O)([O-])[O-].[Cu+2]", "note": "[Copper sulfate]", "values": [{"measurement": "IC50", "setting": "Amadorase [4]", "value": "~1000", "unit": "nM"}]}, {"smiles": "CNC[C@H](O)[C@@H](O)[C@H](O)[C@H](O)CO", "note": "[meglumine, reference compound]", "values": [{"measurement": "decrease of average 3-deoxyglucosone concentration in urine", "setting": "3-deoxyglucosone; three rats, 100 μmols i.p., three hours after injection", "value": 42, "unit": "%"}, {"measurement": "lung desmosine levels compared to untreated mice", "setting": "desmosines [5]", "value": "less than mice not so treated"}]}, {"smiles": "N[C@@H](CCCCNCC(=O)[C@@H](O)[C@H](O)[C@H](O)CO)C(=O)O", "note": "[fructoselysine]", "values": [{"measurement": "3DG (mM) after 24 hours", "setting": "Amadorase [6]; reaction 1: Amadorase +, ATP +", "value": 1.58, "unit": "mM"}, {"measurement": "FL3P (mM) after 24 hours", "setting": "Amadorase [6]; reaction 1: Amadorase +, ATP +", "value": 0.2, "unit": "mM"}, {"measurement": "3DG (mM) after 24 hours", "setting": "Amadorase [6]; reaction 2: Amadorase +, ATP −", "value": 0.08, "unit": "mM"}, {"measurement": "FL3P (mM) after 24 hours", "setting": "Amadorase [6]; reaction 2: Amadorase +, ATP −", "value": 0.0, "unit": "mM"}, {"measurement": "3DG (mM) after 24 hours", "setting": "Amadorase [6]; reaction 3: Amadorase −, ATP +", "value": 0.09, "unit": "mM"}, {"measurement": "FL3P (mM) after 24 hours", "setting": "Amadorase [6]; reaction 3: Amadorase −, ATP +", "value": 0.0, "unit": "mM"}, {"measurement": "3DG (mM) after 24 hours", "setting": "Amadorase [6]; reaction 4: Amadorase −, ATP −", "value": 0.08, "unit": "mM"}, {"measurement": "FL3P (mM) after 24 hours", "setting": "Amadorase [6]; reaction 4: Amadorase −, ATP −", "value": 0.0, "unit": "mM"}, {"measurement": "time of peak 3DF excretion in urine after FL bolus", "setting": "[7]", "value": "about 4 hours"}, {"measurement": "decrease of level of collagen 1A1 RNA", "setting": "[8]", "value": 40, "unit": "%"}]}, {"smiles": "N[C@@H](CCCCNC[C@H](O)[C@@H](O)[C@@H](O)[C@H](O)CO)C(=O)O", "note": "[galactitollysine]", "values": [{"measurement": "reduction of plasma 3-deoxyglucosone", "setting": "3-deoxyglucosone", "value": 50, "unit": "%"}, {"measurement": "average reduction of urinary 3-deoxyglucosone", "setting": "3-deoxyglucosone", "value": 35, "unit": "%"}]}, {"smiles": "N[C@@H](CCCCNC[C@H](O)[C@@H](O)[C@H](O)[C@H](O)CO)C(=O)O", "note": "[sorbitollysine]", "values": [{"measurement": "reduction of plasma 3-deoxyglucosone", "setting": "3-deoxyglucosone", "value": 40, "unit": "%"}, {"measurement": "average reduction of urinary 3-deoxyglucosone", "setting": "3-deoxyglucosone", "value": 50, "unit": "%"}]}]}
